For assay [1], the target named is soluble human BACE1 catalytic domain (Homo sapiens (Human), UniProt P56817). Nature of the assay: BACE1 HTRF FRET Assay. The assay is classed as biochemical. The following applies: Ki calculated from IC50 using the Cheng-Prusoff equation; QSY7-APPswe-Eu substrate, pH 5.0; read-out: BACE-1 Ki. An excerpt: Na^+-Acetate pH 5.0; 1% Brij-35; Glycerol; Dimethyl Sulfoxide (DMSO); Recombinant human soluble BACE1 catalytic domain (>95% pure); APP Swedish mutant peptide substrate (QSY7-APP^swe-Eu): QSY7-EISEVNLDAEFC-Europium-amide.
A homogeneous time-resolved FRET assay can be used to determine IC50 values for inhibitors of the soluble human BACE1 catalytic domain. This assay monitors the increase of 620 nm fluorescence that resulted from BACE1 cleavage of an APPswedish APP^swe mutant peptide FRET substrate (QSY7-EISEVNLDAEFC-Europium-amide). This substrate contains an N-terminal QSY7 moiety that serves as a quencher of the C-terminal Europium fluorophore (620 nm Em). In the absence of enzyme activity, 620 nm fluorescence is low in the assay and increased linearly over 3 hours in the presence of uninhibited BACE1 enzyme. Inhibition of BACE1 cleavage of the QSY7-APP^swe-Eu substrate by inhibitors is manifested as a suppression of 620 nm fluorescence.
Varying concentrations of inhibitors at 3× the final desired concentration in a volume of 10 ul are preincubated with purified human BACE1 catalytic domain (3 nM in 10 μl) for 30 minutes at 30° C. in reaction buffer containing 20 mM Na-Acetate pH 5.0, 10% glycerol, 0.1% Brij-35 and 7.5% DSMO. Reactions are initiated by addition of 10 μl of 600 nM QSY7-APP^swe-Eu substrate (200 nM final) to give a final reaction volume of 30 μl in a 384 well Nunc HTRF plate. The reactions are incubated at 30° C. for 1.5 hours. The 620 nm fluorescence is then read on a Rubystar HTRF plate reader (BMG Labtechnologies) using a 50 millisecond delay followed by a 400 millisecond acquisition time window. Inhibitor IC50 values are derived from non-linear regression analysis of concentration response curves. Ki values are then calculated from IC50 values using the Cheng-Prusoff equation using a previously determined […] of 8 μM for the QSY7-APP^swe-Eu substrate at BACE1.

In assay [2] the target is purified human autoBACE-2 (Homo sapiens (Human), UniProt Q9Y5Z0). The assay can be described thus: BACE-2 Assay (BACE-HTRF assay). The following applies: Ki calculated from IC50 using the Cheng-Prusoff equation; QSY7-EISEVNLDAEFC-Eu-amide substrate, pH 5.0. The assay is classed as biochemical. As for the experimental part: Inhibitor IC50s at purified human autoBACE-2 are determined in a time-resolved endpoint proteolysis assay that measures hydrolysis of the QSY7-[…]-Eu-amide FRET peptide substrate (BACE-HTRF assay). […] DMSO is present at 5% final concentration in the assay. Following laser excitation of sample wells at 320 nm, the fluorescence signal at 620 nm is collected for 400 ms following a 50 μs delay on a RUBYstar HTRF plate reader (BMG Labtechnologies). Raw RFU data is normalized to maximum (1.0 nM BACE/DMSO) and minimum (no enzyme/DMSO) RFU values. […] The Ki values are calculated from the IC50 using the Cheng-Prusoff equation.

The values below come from patent publication US10238743B2 (Merck Sharp & Dohme Corp., priority 2014, dated 2019).

As usually defined, the Ki is a dissociation constant, usually derived from enzyme kinetics or from competition with a known ligand.

Chain of purified human autoBACE-2 (Q9Y5Z0 63-473 limits assumed): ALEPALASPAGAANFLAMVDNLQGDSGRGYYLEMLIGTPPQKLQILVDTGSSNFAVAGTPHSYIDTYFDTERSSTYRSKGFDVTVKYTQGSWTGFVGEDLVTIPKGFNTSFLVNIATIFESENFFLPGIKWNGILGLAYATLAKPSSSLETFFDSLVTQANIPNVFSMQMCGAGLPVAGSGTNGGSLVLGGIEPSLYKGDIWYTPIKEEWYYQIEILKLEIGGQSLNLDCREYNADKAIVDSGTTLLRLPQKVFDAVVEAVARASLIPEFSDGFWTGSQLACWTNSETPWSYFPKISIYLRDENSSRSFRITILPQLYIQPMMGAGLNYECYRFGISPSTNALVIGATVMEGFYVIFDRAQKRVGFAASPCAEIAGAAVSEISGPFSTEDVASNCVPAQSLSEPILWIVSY
Chain of soluble human BACE1 catalytic domain (P56817 75-416): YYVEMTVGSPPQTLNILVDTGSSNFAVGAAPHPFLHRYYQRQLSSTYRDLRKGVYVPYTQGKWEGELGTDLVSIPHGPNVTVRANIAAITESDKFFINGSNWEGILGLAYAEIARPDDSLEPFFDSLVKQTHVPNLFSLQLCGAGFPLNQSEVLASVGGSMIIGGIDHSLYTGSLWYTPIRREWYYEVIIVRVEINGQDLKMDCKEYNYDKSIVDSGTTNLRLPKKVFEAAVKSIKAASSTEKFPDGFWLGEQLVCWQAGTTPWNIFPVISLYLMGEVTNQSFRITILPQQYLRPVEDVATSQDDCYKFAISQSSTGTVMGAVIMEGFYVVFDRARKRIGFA

On to `CN1C(=N)N[C@]2(C)c3cc(NC(=O)c4ccc(Cl)cn4)ccc3OCC[C@H]2S1(=O)=O` [Example 1, 5-chloro-N-((4aR,11bR)-2-imino-3,11b-dimethyl-4,4-dioxido-2,3,4a,5,6,11b-hexahydro-1H-benzo[2,3]oxepino[4,5-e][1,2,4]thiadiazin-10-yl)picolinamide], for which the Ki was 72 nM in assay [1] and 65 nM in assay [2].

Take `CN1C(=N)N[C@]2(C)c3cc(NC(=O)c4ccccn4)ccc3OCC[C@H]2S1(=O)=O` [Example 2, N-((4aR,11bR)-2-imino-3,11b-dimethyl-4,4-dioxido-2,3,4a,5,6,11b-hexahydro-1H-benzo[2,3]oxepino[4,5-e][1,2,4]thiadiazin-10-yl)picolinamide]: the inhibition constant Ki in assay [1] is 508 nM; in assay [2], 279 nM.

With `Cc1nc(C(=O)Nc2ccc3c(c2)[C@@]2(C)NC(=N)N(C)S(=O)(=O)[C@@H]2CCO3)c(C)o1` [Example 3, N-((4aR,11bR)-2-imino-3,11b-dimethyl-4,4-dioxido-2,3,4a,5,6,11b-hexahydro-1H-benzo[2,3]oxepino[4,5-e][1,2,4]thiadiazin-10-yl)-2,5-dimethyloxazole-4-carboxamide], the results for the Ki in assay [1] and in assay [2] were 265 nM and 384 nM, respectively.

For the compound `COCC(=O)Nc1ccc2c(c1)[C@@]1(C)NC(=N)N(C)S(=O)(=O)[C@@H]1CCO2` [Example 4, N-((4aR,11bR)-2-imino-3,11b-dimethyl-4,4-dioxido-2,3,4a,5,6,11b-hexahydro-1H-benzo[2,3]oxepino[4,5-e][1,2,4]thiadiazin-10-yl)-2-methoxyacetamide], the figures for the Ki in assay [1] and in assay [2] were 1360 nM and 890 nM, respectively.

Consider `CN1C(=N)N[C@]2(C)c3cc(NC(=O)c4ccc(C#N)cn4)ccc3OCC[C@H]2S1(=O)=O` [Example 5, 5-cyano-N-((4aR,11bR)-2-imino-3,11b-dimethyl-4,4-dioxido-2,3,4a,5,6,11b-hexahydro-1H-benzo[2,3]oxepino[4,5-e][1,2,4]thiadiazin-10-yl)picolinamide], for which the values for the Ki in assay [1] and in assay [2] were 47 nM and 303 nM, respectively.

On to `C#CCOc1ccc(C(=O)Nc2ccc3c(c2)[C@@]2(C)NC(=N)N(C)S(=O)(=O)[C@@H]2CCO3)nc1` [Example 6, N-((4aR,11bR)-2-imino-3,11b-dimethyl-4,4-dioxido-2,3,4a,5,6,11b-hexahydro-1H-benzo[2,3]oxepino[4,5-e][1,2,4]thiadiazin-10-yl)-5-(prop-2-yn-1-yloxy)picolinamide], for which the figures for the Ki in assay [1] and in assay [2] were 25 nM and 995 nM, respectively.

Consider `CN1C(=N)N[C@]2(C)c3cc(NC(=O)c4ccc(F)cn4)ccc3OCC[C@H]2S1(=O)=O` [Example 7, 5-fluoro-N-((4aR,11bR)-2-imino-3,11b-dimethyl-4,4-dioxido-2,3,4a,5,6,11b-hexahydro-1H-benzo[2,3]oxepino[4,5-e][1,2,4]thiadiazin-10-yl)picolinamide], for which the figures for the Ki in assay [1] and in assay [2] were 108 nM and 159 nM, respectively.

As to `Cc1cc(F)cnc1C(=O)Nc1ccc2c(c1)[C@@]1(C)NC(=N)N(C)S(=O)(=O)[C@@H]1CCO2` [Example 8, 5-fluoro-N-((4aR,11bR)-2-imino-3,11b-dimethyl-4,4-dioxido-2,3,4a,5,6,11b-hexahydro-1H-benzo[2,3]oxepino[4,5-e][1,2,4]thiadiazin-10-yl)-3-methylpicolinamide], the Ki in assay [1] was 133 nM; in assay [2] it was 86 nM.

Turning to `COc1cnc(C(=O)Nc2ccc3c(c2)[C@@]2(C)NC(=N)N(C)S(=O)(=O)[C@@H]2CCO3)cn1` [Example 9, N-((4aR,11bR)-2-imino-3,11b-dimethyl-4,4-dioxido-2,3,4a,5,6,11b-hexahydro-1H-benzo[2,3]oxepino[4,5-e][1,2,4]thiadiazin-10-yl)-5-methoxypyrazine-2-carboxamide], the inhibition constant (Ki) in assay [1] is 591 nM; in assay [2] it was 5610 nM.
